What was measured:
[1] = tested on: Isocitrate Dehydrogenase-1 (IDH-1); assay: Western blot, IDH1 levels; assay type: cell-based, human
Procedure: The whole cell pellets were resuspended one at a time in 1 mL of C7 buffer and transferred to labeled 15 mL tubes. The samples were then sonicated in the cold room on ice using 6 sonic pulses with the setting at #14. The samples were spun for a short time to 2500 g after sonication and the samples transferred to 2 ml tubes. The pH was verified of each sample (pH should be 9.0) using the foam remaining in the […] sample tubes.
Alkylation and reduction of samples was performed for each sample by adding 10 ul of 1M acrylamide, 25 ul of tributylphoshene and incubation for 90 mins with intermittent mixing. After incubation, 10 ul of 1M DTT was added and the tubes were spun at 20,000 g at 20 deg C. for 10 minutes and transferred the supernatant to labeled Amicon Ultra centrifugal filter units with a 10 k cut off (Millipore catalog # UFC 801024). The samples were spun for 15 minutes at 2500 g in 2 intervals. The conductivity was measured for Chaps alone as well as the samples using a conductivity meter. If the conductivity of samples is high, then 1 ml of chaps was added for buffer exchange and spun again at 2500 g until the volume was down to 250 ul. When the conductivity was 200 or less the samples were spun in 5 min intervals at 2500 g until the volume of the supernatant was between 150-100 ul. The sample supernatants were transferred to eppendorf tubes and Bradford assay was performed using BSA as standard.
The samples were processed as per standard protocols as described above and the amount of protein in each of the samples was determined by Bradford assay. Sample volumes equivalent to 10 ug of protein were prepared as shown below with Lamelli Loading dye (LDS) and MilliQ water were run on a 4-12% Bis-Tris Novex NuPAGE gel (Invitrogen, cat # NP0323Box)
The gels were run for 50 minutes using 1×MOPS buffer using a NOVEX Xcell Surelock system at 200 V. The gels were then transferred for 1 hour using a NOVEX Xcell Surelock wet transfer protocol at 30 V. The blots were stained with Simply Blue Safestain from Invitrogen (LC6065).
After transfer each of the blots was placed in between 2 Whatman Filter papers and dried for 15-20 minutes. After drying the blots were labeled with the date, the type of samples and either blot 1 or blot 2 using a HB pencil. The molecular weight markers were outlined with the pencil and with single lines for the blue and a doublet for the colored markers. The blots were activated with methanol for 5 seconds, washed with water for 5 minutes, and TBST for 15 minutes. The blots were blocked for 1 hour with 5% blocking reagent in TBS-T at room temperature and then washed 3 times with TBS-T (1×-15′; 2×5′ each). […]

[2] = tested on: SDH Subunit B; assay: Western blot, Succinate Dehydrogenase B in mitochondrial preparations; assay type: cell-based; settings: mitochondrial preparations of cancer cells
Procedure: The above blots were stripped by incubating for 30 minutes with methanol, followed by two 10 minute washes with TBS-T, then 30 minutes of incubation with Stripping buffer at 50 deg C., and followed by two washes with 100 ml or more of TBS-T for 30′ each. The blots were scanned in laser scanner to check for complete stripping. The blots were activated with methanol for 5 seconds, washed with water for 5 minutes, and TBST for 15 minutes. The blots were blocked for 1 hour with 5% blocking reagent in TBS-T at room temperature and then washed 3 times with TBS-T (1×-15′; 2×5′ each) and probed with the primary antibody for PKM2, SDHB or SDHC in 5% BSA in TBS-T by incubation overnight at 4 deg C. with gentle shaking. The primary antibody for SDHC (ABNOVA H00006391-M02; antimouse) was at 1:500 dilution. The primary antibody for SDHB was from Abcam ab4714-200; antimouse; at 1:1000 dilution. The primary antibody for Pyruvate Kinase M2 (PKM2) was from Novus Biologicals H00005315-D0IP; antirabbit; at 1:500 dilution. After incubation with primary antibodies, the membranes were washed 3 times with TBS-T (1×-15′; 2×5′ each) and probed with the secondary antibody (SDHB & C antimouse; and PKM2 antirabbit; 1:10,000 dilution) for 1 h on the orbital tilting shaker at room temperature. […]

For COC1=C(OC)C(=O)C(C/C=C(\C)CC/C=C(\C)CC/C=C(\C)CC/C=C(\C)CC/C=C(\C)CC/C=C(\C)CC/C=C(\C)CC/C=C(\C)CC/C=C(\C)CCC=C(C)C)=C(C)C1=O [Q10, Coenzyme Q10], the “IDH1, Average Normalized Intensity” value ([1]; HDFa cells, HDF24-100 (HDF, Media = 346)) was 600, the “expression pattern of IDH1” value ([1]; HDFa, nFIB and HASMC) was “did not demonstrate significant changes” and the “expression of IDH1” value ([1]; SCC25 cell lines) was “moderate increase in expression”. The “expression of IDH1” value ([1]; cancer cell lines MCF-7, SKMEL28, HepG2 and PaCa-2) was “increased expression” and the SDH protein levels [2] was “increase SDH protein levels”.
